The values that follow come from patent publication US20100273835A1, “NOVEL COMPOUNDS” (PROBIODRUG AG, priority 2007, published 2010).

The structures appear in SMILES notation.

The subject of assay [1] is basal secretion of IL-6, human glial U-343 cells. The assay is described as follows: IL-6 ELISA, basal secretion of IL-6 into conditioned medium. In kind it is cell-based. As to conditions: inhibitor 20 μM, 24 hours, serum-free medium, untreated = 100%, read-out: Extracellular IL-6 concentration, % of untreated cells. How it is done:
To analyze basal secretion of IL-6, human glial U-343 cells were cultured in 6 well plates (1.5×10^6 cells/well, Greiner) and treated with specific PEP inhibitors as indicated (20 μM each) for 24 hours in serum-free D-MEM medium (Invitrogen). Aliquots of 40 μl conditioned medium were used to quantify the amount of secreted IL-6 by an human-specific IL-6 ELISA (Biosource) following the manufacturer's instructions. All data were obtained in quadruplicate. For the calculation of the IL-6 concentration in the cell culture medium after PEP-inhibitor treatment, the basal IL-6 concentration of the cell culture medium of untreated cell samples was set to 100%. The results of the measurement of the IL-6 concentration with PEP-inhibitor treated cells are presented as % of the untreated cell samples.
(§1) The human glioma cell line, U-343 and the human neuroblastoma cell line, SH-SY5Y were maintained in Dulbecco's modified Eagle's medium (DMEM) containing 10% fetal bovine serum (Gibco BRL, Karlsruhe, Germany) and incubated at 37° C. in a 5% CO2 atmosphere. Culture media contained in general 60 μg/ml gentamycin (Gibco BRL, Karlsruhe, Germany).

Assay [2] deals with T1, Recombinant human prolyl oligopeptidase (Homo sapiens, UniProt P48147).
T1 construct: made in house; host or cells: E. coli
T1 sequence (P48147 1-710): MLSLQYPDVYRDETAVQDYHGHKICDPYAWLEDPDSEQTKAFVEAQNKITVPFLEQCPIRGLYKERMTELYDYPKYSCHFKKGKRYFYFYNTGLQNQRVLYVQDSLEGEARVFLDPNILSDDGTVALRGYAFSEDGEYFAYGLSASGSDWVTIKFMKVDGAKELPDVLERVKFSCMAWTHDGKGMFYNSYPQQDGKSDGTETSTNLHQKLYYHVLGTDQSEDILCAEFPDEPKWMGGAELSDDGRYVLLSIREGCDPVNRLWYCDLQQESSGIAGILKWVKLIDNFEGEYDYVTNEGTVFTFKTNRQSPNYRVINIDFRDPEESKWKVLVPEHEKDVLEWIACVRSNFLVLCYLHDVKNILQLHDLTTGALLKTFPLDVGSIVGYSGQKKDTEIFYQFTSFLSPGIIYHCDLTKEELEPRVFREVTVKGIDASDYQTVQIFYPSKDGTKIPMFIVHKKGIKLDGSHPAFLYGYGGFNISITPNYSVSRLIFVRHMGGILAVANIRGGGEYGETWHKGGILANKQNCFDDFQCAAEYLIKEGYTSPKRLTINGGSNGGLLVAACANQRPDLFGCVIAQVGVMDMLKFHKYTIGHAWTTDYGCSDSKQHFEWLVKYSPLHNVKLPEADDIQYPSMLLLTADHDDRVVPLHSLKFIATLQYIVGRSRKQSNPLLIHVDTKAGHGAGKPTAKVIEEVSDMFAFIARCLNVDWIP
Description: Determination of IC50- and Ki-values of PEP-inhibitors, chromogenic substrate Cbz-Gly-L-Pro-pNA. It counts as biochemical. The following applies: for IC50 PEP (M) / IC50: substrate 0.15 mM, HEPES buffer pH 7.6, 30° C., n.i. means no inhibition; for Ki: 4 substrate and 7 inhibitor concentrations, competitive inhibition, pH 7.6, 30° C. How it is done: Recombinant human prolyl oligopeptidase was used for measurement. Recombinant expression was performed in E. coli under standard conditions as described elsewhere in the state of the art.
For activity measurements the chromogenic substrate Cbz-Gly-L-Pro-pNA was used in HEPES buffer pH 7.6 containing 50 mM HEPES, 200 mM NaCl, 1 mM EDTA, 1 mM DTT, 0.006% Brij35. Measurements were carried out at 30° C. Release of pNA were monitored continuously at 405 nm.
IC50 values were calculated using non-linear regression to a 4-parameter equation (Prism 4.0, GraphPad).
For Ki determination 4 substrate (0.15 mM, 0.08 mM 0.04 mM, 0.02 mM) and 7 inhibitor concentrations in an appropriate range were used. Calculations were performed by multiple non-linear regression analysis to the equation for competitive inhibition using GraFit 5.0 Software (Erithacus Software).

For assay [3], the system named is beta-amyloid peptides 1-40 and 1-42, U-343 and SH-SY5Y cells. Description: Beta-amyloid ELISA, secreted beta-amyloid peptides in conditioned medium. In kind it is cell-based. As to conditions: Homo sapiens; inhibitor 20 μM, 24 hours; untreated = 100%; FIG. 2: Abeta 1-42, SH-SY5Y cells; read-out: Extracellular Abeta-concentration % of control. The protocol: as §1
To quantify intracellular and extracellular concentrations of beta-amyloid peptides, 1-40 and 1-42, U-343 and SH-SY5Y cells were cultured in 6 well plates (1.5×10^6 cells/well) and treated with specific PEP inhibitors (20 μM each) for 24 hours. For quantitation of secreted beta-amyloid peptides the conditioned medium was collected and concentrated by lyophylisation. Likewise, after determination of the cell numbers/well (casy cell counter I, Schärfe System, Reutlingen, Germany), cells were lyzed with cell extraction buffer (Biosource, Solingen, Germany) according to the manufacturer's protocol. The protein concentration was determined by the method of Bradford (1976). Aliquots of 100 μl were used to quantify beta-amyloid peptides 1-40 and 1-42 in quadruplicate by ELISA (IBL, Hamburg, Germany) following the manufacturer's instructions. All obtained intracellular and extracellular concentrations were normalized to cell numbers and protein concentration, respectively.
For the calculation of the concentration of beta-amyloid peptides 1-40 and 1-42 in the cell culture medium after PEP-inhibitor treatment, the basal concentration of beta-amyloid peptides 1-40 and 1-42 in the cell culture medium of untreated cell samples was set to 100%. The results of the measurement of the concentration of beta-amyloid peptides 1-40 and 1-42 with PEP-inhibitor treated cells are presented as % of the untreated cell samples.

Turning to `CC(C)(C)OC(=O)N[C@@H](Cc1ccc(I)cc1)C(=O)c1ccco1` [Example 22, 2-[Boc-L-(p-Iodo)Phe]Furan], the activity at 20 µM came out at 50% in assay [1] and 232% in assay [3]. Also, in assay [2], the “IC50 PEP (M)” value was “n.i”.

As to `O=C(/C=C/c1ccccc1)N[C@@H](Cc1ccccc1)C(=O)c1nccs1` [Example 19, 2-[Cinnamoyl-L-Phe]Thiazole], the activity at 20 µM in assay [1] stood at 58%; in assay [3], 230%. Moreover, in assay [2], the “IC50 PEP (M)” value was “n.i”.

As for `C=CCOC(=O)N[C@@H](Cc1ccccc1)C(=O)c1ccco1` [Example 15, 2-[Aloc-L-Phe]Furan], the activity at 20 µM in assay [1] worked out at 78%; in assay [3], 116%. Moreover, the IC50 in assay [2] is 10 µM.

For the molecule `CC(C)C[C@H](NC(=O)OC(C)(C)C)C(=O)c1nc2ccccc2s1` [Example 20, 2-[Boc-L-Leu]Benzothiazole], the activity at 20 µM in assay [1] stood at 63%; in assay [3] it was 375%.

Regarding `C[C@H](NC(=O)OCc1ccccc1)C(=O)c1nccs1` [Example 10, 2-[Cbz-L-Ala]Thiazole], the activity at 20 µM in assay [1] was found to be 78%. Further, in assay [2], the Ki worked out at 2.3 µM and the IC50 was determined as 7.1 µM. For the same molecule, the activity at 20 µM in assay [3] turned out to be 107%.

For the molecule `CC(C)(C)OC(=O)N[C@@H](Cc1c[nH]c2ccccc12)C(=O)c1nccs1` [Example 17, 2-[Boc-L-Trp]Thiazole], the values for the activity at 20 µM in assay [1] and in assay [3] were 38% and 143%, respectively. For the same molecule, in assay [2], the concentration for half-maximal inhibition (IC50) was found to be 94 µM.

In the case of `CC(C)(C)OC(=O)N[C@@H](Cc1c[nH]c2ccccc12)C(=O)c1nc2ccccc2s1` [Example 16, 2-[Boc-L-Trp]Benzothiazole], the activity at 20 µM was determined as 23% in assay [1] and 177% in assay [3]. In addition, the IC50 in assay [2] amounted to 40 µM.

Consider `CC(C)(C)OC(=O)N1CCC[C@H]1C(=O)c1nc2ccccc2s1` [Example 24, 2-[Boc-L-Pro]Benzothiazole], for which the activity at 20 µM in assay [1] was found to be 26%; in assay [3] it was 136%.

As for `O=C(N[C@@H](Cc1ccccc1)C(=O)c1cccs1)OCc1ccccc1` [Example 3, 2-[Cbz-L-Phe]Thiophene], the activity at 20 µM in assay [1] is 23%; in assay [3] it was 339%. Further, the IC50 in assay [2] is 1 µM.

As to `CC(C)(C)OC(=O)N[C@@H](Cc1ccc([N+](=O)[O-])cc1)C(=O)c1ccco1` [Example 12, 2-[Boc-L-(p-NO2)Phe]Furan], the activity at 20 µM in assay [1] was found to be 37%; in assay [3] it was 166%. For the same molecule, the IC50 in assay [2] was found to be 14 µM.

As to `CC(C)(C)OC(=O)N[C@@H](Cc1c[nH]c2ccccc12)C(=O)c1ccco1` [Example 18, 2-[Boc-L-Trp]Furan], the activity at 20 µM worked out at 24% in assay [1] and 163% in assay [3]. Besides, the half-maximal inhibitory concentration (IC50) in assay [2] came to 14 µM.

As for `O=C(N[C@@H](Cc1ccccc1)C(=O)c1ccccn1)OCc1ccccc1` [Example 7, 2-[Cbz-L-Phe]Pyridine], the activity at 20 µM came to 31% in assay [1] and 236% in assay [3]. The concentration for half-maximal inhibition (IC50) in assay [2] amounted to 39 µM.

Take `C=CCOC(=O)N[C@@H](Cc1ccccc1)C(=O)c1nccs1` [Example 14, 2-[Aloc-L-Phe]Thiazole]: the activity at 20 µM in assay [1] stood at 67%; in assay [3], 115%.

Take `O=C(N[C@@H](Cc1ccccc1)C(=O)c1nccs1)OCc1ccccc1` [Example 5, 2-[Cbz-L-Phe]Thiazole]: the activity at 20 µM in assay [1] was 29%; in assay [3], 193%. In addition, the Ki in assay [2] was determined as 0.00115 µM. In addition, the IC50 in assay [2] amounted to 0.0012 µM.

As for `CC(C)(C)OC(=O)N[C@@H](Cc1ccc([N+](=O)[O-])cc1)C(=O)c1nccs1` [Example 11, 2-[Boc-L-(p-NO2)Phe]Thiazole], the activity at 20 µM was found to be 62% in assay [1] and 178% in assay [3]. Also, the 50% inhibitory concentration (IC50) in assay [2] turned out to be 25 µM.

For `C=CCOC(=O)N[C@@H](Cc1ccccc1)C(=O)c1nc2ccccc2s1` [Example 13, 2-[Aloc-L-Phe]Benzothiazole], the activity at 20 µM stood at 69% in assay [1] and 106% in assay [3]. The “IC50 PEP (M)” value in assay [2] was “n.i”.

As to `O=C(N[C@@H](Cc1ccccc1)C(=O)c1nc2ccccc2s1)OCc1ccccc1` [Example 2, 2-[Cbz-L-Phe]Benzothiazole], the activity at 20 µM in assay [1] amounted to 44%; in assay [3], 295%. Also, the IC50 in assay [2] was greater than 100 µM.

For `O=C(c1nc2ccccc2s1)[C@@H]1CCCN1C(=O)OCc1ccccc1` [Example 1, 2-[Cbz-L-Pro]Benzothiazole], the activity at 20 µM in assay [1] is 40%. In assay [2], the Ki amounted to 0.98 µM and the IC50 was determined as 7 µM. In assay [3], the activity at 20 µM is 155%.

In the case of `CC(C)(C)OC(=O)N[C@@H](Cc1ccc([N+](=O)[O-])cc1)C(=O)c1nc2ccccc2s1` [Example 21, 2-[Boc-L-(p-NO2)Phe]Benzothiazole], the activity at 20 µM is 96% in assay [1] and 311% in assay [3]. Also, in assay [2], the “IC50 PEP (M)” value was “n.i”.

With `O=C(N[C@H](Cc1ccccc1)C(=O)c1nccs1)OCc1ccccc1` [Example 4, 2-[Cbz-D-Phe]Thiazole], the activity at 20 µM in assay [1] stood at 44%; in assay [3], 172%. Besides, the “IC50 PEP (M)” value in assay [2] is reported as “n.i”.

As to `O=C(N[C@@H](Cc1ccccc1)C(=O)c1cc2ccccc2s1)OCc1ccccc1` [Example 8, 2-[Cbz-L-Phe]Benzo[b]thiophene], the activity at 20 µM in assay [1] stood at 27%; in assay [3], 310%. Further, the “IC50 PEP (M)” value in assay [2] is reported as “n.i”.

Regarding `CC(C)(C)OC(=O)N1CCC[C@H]1C(=O)c1nccs1` [Example 25, 2-[Boc-L-Pro]Thiazole], the activity at 20 µM in assay [1] turned out to be 59%. Further, in assay [2], the Ki amounted to 2.3 µM and the IC50 amounted to 7.3 µM. Moreover, the activity at 20 µM in assay [3] turned out to be 111%.

On to `O=C(N[C@@H](Cc1ccccc1)C(=O)c1ccccc1)OCc1ccccc1` [Example 9, Cbz-L-Phe-Benzene], for which the activity at 20 µM in assay [1] stood at 18%. Besides, in assay [2], the Ki is 1.6 µM and the half-maximal inhibitory concentration (IC50) was determined as 5.2 µM. Besides, in assay [3], the activity at 20 µM worked out at 330%.

With `CC(C)(C)OC(=O)N[C@@H](Cc1ccccc1)C(=O)c1nccs1` [Example 26, 2-[Boc-L-Phe]Thiazole], the activity at 20 µM was determined as 66% in assay [1] and 168% in assay [3]. Further, the inhibitory constant (Ki) in assay [2] came out at 52 µM. The IC50 in assay [2] turned out to be 77 µM.
